In brackets after ≈: the same amount, converted by molar mass. Like-named read-outs stand apart in the source and are kept apart here. Some results are limits rather than exact numbers.

Consider two molecules from publication PMC12305662, “Fragment-Based Development of Small Molecule Inhibitors Targeting Mycobacterium tuberculosis Cholesterol Metabolism” (Journal of Medicinal Chemistry, 2025).

In series [1] the test system is Mtb H37Rv pATB45luc in THP-1 macrophages. In words: microbe, parasite or virus in culture. Format: cell-based. The settings on record: Mycobacterium tuberculosis, 120 h, 5 days post-compound treatment, mean ± SD n = 2, read-out: intracellular growth Mtb IC50.
Series [2] has as its system Mtb CDC1551. In words: Depletion of intracellular ATP (BacTiter Glo), Mtb on cholesterol. Format: cell-based. The settings on record: Mycobacterium tuberculosis, cholesterol as sole carbon source.
The subject of series [3] is Mtb H37Rv. In words: Extracellular Mtb growth on cholesterol, MABA MIC99. The series is classed as cell-based, Mycobacterium tuberculosis. Particulars: Mycobacterium tuberculosis, H37RV, 336 h; cholesterol as sole carbon source; 2 weeks post-compound treatment; read-out: MABA-MIC99 (W2) H37Rv, cholesterol.
The subject of series [4] is Mtb H37Rv. In words: Depletion of intracellular ATP (BacTiter Glo), Mtb on cholesterol. Format: cell-based, Mycobacterium tuberculosis. The settings on record: cholesterol as sole carbon source.
Series [5] has as its target T1, CYP125 (Mycobacterium tuberculosis, UniProt P9WPP1). The experiment in a line: biochemical. Format: binding. Particulars: read-out: KD (μM) CYP125.
Series [6] deals with T2, CYP2C9 (Homo sapiens, UniProt P11712).
T2 construct: from tissue; host or cells: human liver microsomes
In words: Inhibition of human liver microsomal P450s. Format: in vitro ADME. An excerpt:
(§1) Table S8. Inhibition of human liver microsomal P450s. Inhibition constants (IC 50 values, µM) of
(§2) following substrates: CYP1A-ethoxyresorufin, CYP2C19- mephenytoin, CYP2C9-tolbutamide, CYP2D6-
(§3) dextromethorphan, CYP3A4-midazolam/testosterone.

In series [7] the target is T3, CYP2C19 (Homo sapiens, UniProt P33261).
T3 construct: from tissue; host or cells: human liver microsomes
In words: Inhibition of human liver microsomal P450s. The series is classed as in vitro ADME.
Excerpt: as §1, §2, §3

Series [8] has as its target T4, CYP2D6 (Homo sapiens, UniProt P10635).
T4 construct: from tissue; host or cells: human liver microsomes
The experiment in a line: Inhibition of human liver microsomal P450s. The series is classed as in vitro ADME.
Excerpt: as §1, §2, §3

The target in series [9] is T5, CYP1A (Homo sapiens, UniProt P05177).
T5 construct: from tissue; host or cells: human liver microsomes
T5 sequence (P05177 2-516 limits assumed): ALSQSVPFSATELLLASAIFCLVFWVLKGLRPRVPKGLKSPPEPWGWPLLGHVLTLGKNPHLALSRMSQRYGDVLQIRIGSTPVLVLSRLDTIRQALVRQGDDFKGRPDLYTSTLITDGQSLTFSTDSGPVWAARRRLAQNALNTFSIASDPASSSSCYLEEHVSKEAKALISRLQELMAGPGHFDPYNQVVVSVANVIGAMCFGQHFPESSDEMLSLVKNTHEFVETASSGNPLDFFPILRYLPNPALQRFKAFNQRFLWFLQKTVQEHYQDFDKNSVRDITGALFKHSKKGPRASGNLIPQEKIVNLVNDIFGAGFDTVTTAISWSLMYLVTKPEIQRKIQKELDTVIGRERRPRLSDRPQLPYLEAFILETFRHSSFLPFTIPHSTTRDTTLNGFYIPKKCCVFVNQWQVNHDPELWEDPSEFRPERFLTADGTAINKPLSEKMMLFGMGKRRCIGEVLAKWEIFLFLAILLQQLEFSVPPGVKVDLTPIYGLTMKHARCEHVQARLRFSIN
The experiment in a line: Inhibition of human liver microsomal P450s. Format: in vitro ADME.
Excerpt: as §1, §2, §3

For series [10], the target named is T6, CYP3A4 (Homo sapiens, UniProt P08684).
T6 construct: from tissue; host or cells: human liver microsomes
The experiment in a line: Inhibition of human liver microsomal P450s. Format: in vitro ADME.
Excerpt: as §1, §2, §3

Series [11] has as its system Mtb (Erdman). The experiment in a line: Extracellular Mtb (Erdman) growth on cholesterol-supplemented (0.01%) media, MABA. Format: cell-based, Mycobacterium tuberculosis. Particulars: Mycobacterium tuberculosis, ERDMAN, 168 h, MABA 1 week post-compound treatment, mean ± SD n = 3, read-out: mixed media IC50 (Erdman).
For series [12], the system named is Mtb CDC1551. The experiment in a line: Depletion of intracellular ATP, Mtb on glucose. The settings on record: read-out: ATP IC50 (W1) CDC1551, glucose media; glucose as sole carbon source; 1 week.
Protocol: (Mtb) H37Rv or CDC1551 strains were grown in Middlebrook 7H9 broth medium (Difco) supplemented with 0.3 g/L casitone, 0.81 g/L NaCl, 0.05% (v/v) tyloxapol, and either 97 mg/L cholesterol, 4 g/L glucose, or 0.2% glycerol. For inhibitor assays, a 10-fold serial dilution of the test compounds was made in the desired medium in duplicate rows of a 96-well plate. Mtb cells were then added to all the wells at the final concentration of 1 × 10^4 CFU, and plates were incubated at 37 °C for up to 15 days. Minimum inhibitory concentrations (MIC99) were determined using the Microplate Alamar Blue Assay (MABA) on day 15.
BacTiter Glo reagent (Promega) was added to microtiter plates (1:10 dilution) and luminescence was recorded after 15 min of incubation at room temperature. […] Isoniazid or p-amino salicylic acid were used as positive control compounds for all experiments. Reported MIC and IC50 values are the mean of duplicate treatments.
Series [13] concerns the target T1, CYP125. The experiment in a line: LC-MS substrate turnover assay (cholest-4-en-3-one). Format: biochemical. Particulars: for IC50: CYP125 0.5 μM, cholest-4-en-3-one 5 µM, LC-MS, read-out: CYP125A1 IC50; for Ki: estimated by Cheng-Prusoff, cholest-4-en-3-one Km CYP125 = 2.1 µM, read-out: CYP125A1 KI.
Series [14] deals with Mtb CDC1551. In words: Extracellular Mtb growth on cholesterol, MABA MIC99. The series is classed as cell-based, Mycobacterium tuberculosis. The settings on record: Mycobacterium tuberculosis, CDC1551, 336 h; cholesterol as sole carbon source; 2 weeks post-compound treatment; read-out: MABA-MIC99 (W2) CDC1551, cholesterol.
Series [15] deals with uninfected THP-1 macrophages. In words: THP-1 cytotoxicity (ATPLite). Particulars: for THP-1 LD50: uninfected THP-1 macrophages, ATP-dependent luminescence, 5 days, top concentration 50 μM.
Where [16] appears, read: CDC1551, 168 h, 1 week post-compound treatment, read-out: ATP-IC50 (W1) CDC1551, cholesterol.
Setting [17] is: CDC1551, 336 h, 2 weeks post-compound treatment, read-out: ATP-IC50 (W2) CDC1551, cholesterol.
[18] abbreviates: Mycobacterium tuberculosis, H37RV, 336 h, 2 weeks post-compound treatment, read-out: ATP-IC50 (W2) H37Rv, cholesterol.
[19] abbreviates: CYP3A4 IC50 (midazolam), substrate midazolam (first value of cell).
[20] abbreviates: CYP3A4 IC50 (testosterone), substrate testosterone (second value of cell).

T6 sequence (P08684 whole entry): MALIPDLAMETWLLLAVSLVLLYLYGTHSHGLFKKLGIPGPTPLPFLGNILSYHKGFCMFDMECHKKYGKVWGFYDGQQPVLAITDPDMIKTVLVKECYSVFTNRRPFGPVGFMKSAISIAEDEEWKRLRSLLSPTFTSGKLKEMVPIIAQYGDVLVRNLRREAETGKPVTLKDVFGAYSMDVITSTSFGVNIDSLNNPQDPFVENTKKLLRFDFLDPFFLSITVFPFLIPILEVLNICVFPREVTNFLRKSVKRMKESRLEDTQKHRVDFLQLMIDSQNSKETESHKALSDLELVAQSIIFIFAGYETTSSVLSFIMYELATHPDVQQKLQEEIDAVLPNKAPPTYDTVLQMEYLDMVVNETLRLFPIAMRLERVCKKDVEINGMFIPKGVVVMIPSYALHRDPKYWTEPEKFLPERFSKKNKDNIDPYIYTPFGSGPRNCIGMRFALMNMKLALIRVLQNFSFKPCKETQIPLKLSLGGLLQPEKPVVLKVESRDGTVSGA
T1 sequence (P9WPP1 whole entry): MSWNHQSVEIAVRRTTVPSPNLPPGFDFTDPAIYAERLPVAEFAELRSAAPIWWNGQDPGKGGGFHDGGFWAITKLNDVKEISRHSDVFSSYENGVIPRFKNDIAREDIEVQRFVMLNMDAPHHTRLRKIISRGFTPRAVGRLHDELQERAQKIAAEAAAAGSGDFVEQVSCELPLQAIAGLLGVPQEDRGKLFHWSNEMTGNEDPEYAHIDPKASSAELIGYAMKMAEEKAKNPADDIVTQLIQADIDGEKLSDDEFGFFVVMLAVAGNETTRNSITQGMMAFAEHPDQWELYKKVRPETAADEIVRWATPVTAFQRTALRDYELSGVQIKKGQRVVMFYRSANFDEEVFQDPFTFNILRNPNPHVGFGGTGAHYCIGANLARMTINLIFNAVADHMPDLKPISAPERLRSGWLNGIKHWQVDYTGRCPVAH
T3 sequence (P33261 whole entry): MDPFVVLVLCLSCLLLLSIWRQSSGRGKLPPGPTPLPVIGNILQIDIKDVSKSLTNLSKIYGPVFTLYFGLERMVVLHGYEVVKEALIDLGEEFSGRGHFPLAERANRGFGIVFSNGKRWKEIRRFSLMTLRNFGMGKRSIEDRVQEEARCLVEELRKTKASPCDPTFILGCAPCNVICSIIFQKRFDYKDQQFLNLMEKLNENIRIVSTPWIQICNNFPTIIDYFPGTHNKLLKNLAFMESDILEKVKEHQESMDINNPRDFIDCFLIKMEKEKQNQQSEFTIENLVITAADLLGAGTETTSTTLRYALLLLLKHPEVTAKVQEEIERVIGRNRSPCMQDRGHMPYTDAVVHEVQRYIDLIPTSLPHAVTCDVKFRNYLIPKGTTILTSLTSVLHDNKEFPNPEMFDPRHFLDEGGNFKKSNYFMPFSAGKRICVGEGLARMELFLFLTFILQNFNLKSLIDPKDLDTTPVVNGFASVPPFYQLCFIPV
T4 sequence (P10635 whole entry): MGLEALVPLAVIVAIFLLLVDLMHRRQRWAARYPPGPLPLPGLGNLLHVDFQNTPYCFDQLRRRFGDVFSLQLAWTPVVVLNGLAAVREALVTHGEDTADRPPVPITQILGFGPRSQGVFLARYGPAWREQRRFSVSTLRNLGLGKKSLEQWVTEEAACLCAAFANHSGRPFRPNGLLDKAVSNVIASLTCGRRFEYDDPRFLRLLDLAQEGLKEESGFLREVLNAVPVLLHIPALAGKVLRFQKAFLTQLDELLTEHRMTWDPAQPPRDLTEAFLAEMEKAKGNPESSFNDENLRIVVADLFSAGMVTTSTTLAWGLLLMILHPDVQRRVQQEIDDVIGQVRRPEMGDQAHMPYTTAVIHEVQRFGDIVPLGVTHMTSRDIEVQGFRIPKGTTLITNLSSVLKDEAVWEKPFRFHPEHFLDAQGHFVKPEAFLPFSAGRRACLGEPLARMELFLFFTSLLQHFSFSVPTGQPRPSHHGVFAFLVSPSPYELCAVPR
T2 sequence (P11712 whole entry): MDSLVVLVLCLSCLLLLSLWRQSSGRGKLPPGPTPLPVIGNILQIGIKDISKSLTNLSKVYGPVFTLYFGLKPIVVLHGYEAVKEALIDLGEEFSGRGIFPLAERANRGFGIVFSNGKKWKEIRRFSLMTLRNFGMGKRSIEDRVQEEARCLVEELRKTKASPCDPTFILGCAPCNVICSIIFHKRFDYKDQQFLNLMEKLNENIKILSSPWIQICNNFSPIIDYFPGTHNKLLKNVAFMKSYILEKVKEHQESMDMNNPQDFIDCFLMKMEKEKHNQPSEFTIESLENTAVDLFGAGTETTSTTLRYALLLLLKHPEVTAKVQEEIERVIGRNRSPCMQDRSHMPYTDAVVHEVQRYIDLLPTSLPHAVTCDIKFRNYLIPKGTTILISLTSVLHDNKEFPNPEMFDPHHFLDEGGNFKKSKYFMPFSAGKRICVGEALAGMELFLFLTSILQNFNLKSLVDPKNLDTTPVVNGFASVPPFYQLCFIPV

For `O=C(Nc1ccc(Cc2ccncc2)cc1)[C@H](Cc1c[nH]c2ccccc12)NCc1ccccc1` [5d, (S)-2-(Benzylamino)-3-(1H-indol-3-yl)-N-(4-(pyridin-4-ylmethyl)phenyl)propanamide], the IC50 in [1] was 2800 ± 200 nM; in series [2] (setting [16]), 4700 nM; in [2] (setting [17]), 38000 nM; in series [4] (Mycobacterium tuberculosis, H37RV, 168 h, 1 week post-compound treatment, read-out: ATP-IC50 (W1) H37Rv, cholesterol), 4700 nM; in series [4] (setting [18]), 4700 nM; in series [4] (1 week post-compound treatment, read-out: ATP-IC50 (W1) H37Rv, cholesterol) it was less than 5000 nM. Besides, the IC50 was 140 nM in series [6]; less than 100 nM in series [7]; 460 nM in [8]; 110 nM in series [9]; 520 nM in [10] (setting [19]); 1490 nM in series [10] (setting [20]). For the same molecule, the results for the IC50 in series [11], in [12] and in series [13] were 18000 ± 3000 nM, 19000 nM and 790 ± 90 nM, respectively. The MIC99 in series [3] and in series [14] was 25 µM (≈ 11.5 µg/mL) throughout. Further, the Kd in series [5] turned out to be 0.072 ± 0.026 µM. In addition, in [13], the Ki was 230 nM. For the same molecule, the “THP-1 cytotoxicity in words” value in series [15] (concentrations up to 50 μM) is reported as “weakly cytotoxic”. For the same molecule, the “THP-1 LD50” value in series [15] amounted to 45 µM.

Regarding `O=S(=O)(Nc1ccc(Cc2ccncc2)cc1)c1ccc(OC(F)(F)F)cc1` [5k, N-(4-(Pyridin-4-ylmethyl)phenyl)-4-(trifluoromethoxy)benzenesulfonamide], the IC50 was 13000 ± 180 nM in [1]; 1200 nM in [2] (setting [16]); 9400 nM in series [2] (setting [17]); 2300 nM in [4] (setting [18]); 5270 nM in series [6]; 3100 nM in [7]. In addition, the IC50 was 180 nM in [8]; 5950 nM in series [9]; 260 nM in [10] (setting [19]); 1250 nM in series [10] (setting [20]); 22000 ± 2000 nM in [11]; 19000 nM in series [12]. For the same molecule, in series [13], the IC50 worked out at 910 ± 220 nM. Moreover, the MIC99 in [3] and in series [14] was 25 µM (≈ 10.2 µg/mL) in each case. Further, the Kd in [5] was 0.55 ± 0.12 µM. In addition, in series [13], the Ki is 270 nM. Moreover, the “THP-1 LD50” value in series [15] was 32 µM.
